The data set is described as follows: in vitro. It counts as in vitro ADME, human. Here is the method:
For several compounds only human liver microsomal stability was tested. […] The microsomal assays were carried out with and without the addition of NADPH at a final concentration of 1 mM. For negative control samples, NADPH reagent was not added. […] Note that compounds undergo only Phase I metabolism in liver microsomes.

[1] abbreviates: human liver microsomes 0.5 mg/mL, with NADPH, compound 0.5 μM, 37° C., read-out: Human Liver Microsomal Stability t1/2.
[2] abbreviates: human liver microsomes 0.5 mg/mL, with NADPH, compound 0.5 μM, read-out: Human Liver Microsomal Stability CLint (uL/min/mg liver) (converted).
Setting [3] is: human liver microsomes, no NADPH, compound 0.5 μM.

25 compounds from patent US20250034201A1, “PRODRUGS OF GANAXOLONE” (priority 2022, published 2025) can be followed below.

Like-named read-outs stand apart in the source and are kept apart here. Some results are limits rather than exact numbers.

For `CC(=O)[C@H]1CC[C@H]2[C@@H]3CC[C@H]4C[C@](C)(OC(=O)COC(=O)C(C)(C)OC(=O)CN(C)CCCO)CC[C@]4(C)[C@H]3CC[C@]12C` [Compound 245], under setting [1], the half-life worked out at 11.4 min. For the same compound, the microsomal CLint under setting [2] was 122 µL/min/mg. Further, the “Human Liver Microsomal Stability no NADPH, % remain 1 h” value under setting [3] is 69.7%.

With `CC(=O)[C@H]1CC[C@H]2[C@@H]3CC[C@H]4C[C@](C)(OC(=O)CSCCOC(=O)CN5CCOCC5)CC[C@]4(C)[C@H]3CC[C@]12C` [Compound 303], under “human liver microsomes”, the “Comments: production of GNX (ganaxolone) in human liver microsomes” value (“Comments: production of GNX (ganaxolone)” for short) is “In human GNX not produced”. Also, the half-life under setting [1] amounted to 2.48 min. Further, the microsomal CLint under setting [2] was 599 µL/min/mg. Also, the “Human Liver Microsomal Stability no NADPH, % remain 1 h” value under setting [3] was 90%.

As for `CC(=O)[C@H]1CC[C@H]2[C@@H]3CC[C@H]4C[C@](C)(OC(=O)COC(=O)C(C)(C)OC(=O)CN(C)CCOC(=O)CN)CC[C@]4(C)[C@H]3CC[C@]12C` [Compound 241], under “human, microsomes”, the half-life was 3.9 min; the microsomal CLint turned out to be 356 µL/min/mg; the “Human Liver Microsomal Stability no NADPH, % remain 1 h” value was 3.68%.

As for `CC(=O)[C@H]1CC[C@H]2[C@@H]3CC[C@H]4C[C@](C)(OC(=O)COC(=O)[C@H](CC(C)C)NC(=O)[C@@H](N)CC(C)C)CC[C@]4(C)[C@H]3CC[C@]12C` [Compound 215], the half-life under setting [1] is 257 min. The microsomal CLint under setting [2] is 5.39 µL/min/mg. Besides, the “Human Liver Microsomal Stability no NADPH, % remain 1 h” value under setting [3] was found to be 88%.

`CC(=O)[C@H]1CC[C@H]2[C@@H]3CC[C@H]4C[C@](C)(OC(=O)CNC(C)(C)COC(=O)CN5CCOCC5)CC[C@]4(C)[C@H]3CC[C@]12C` [Compound 136]: under setting [1], the half-life stood at 3 min. Besides, the microsomal CLint under setting [2] was 457 µL/min/mg. Besides, the “Human Liver Microsomal Stability no NADPH, % remain 1 h” value under setting [3] is listed as 0.5%.

Turning to `CC(=O)[C@H]1CC[C@H]2[C@@H]3CC[C@H]4C[C@](C)(OC(=O)CC(C)(C)C(=O)OCCN(C)C)CC[C@]4(C)[C@H]3CC[C@]12C` [Compound 413], the “Comments: production of GNX (ganaxolone)” value (human liver microsomes) is reported as “In human no GNX produced”. In addition, the half-life under setting [1] was determined as 126 min. Besides, the microsomal CLint under setting [2] was 11 µL/min/mg. Besides, the “Human Liver Microsomal Stability no NADPH, % remain 1 h” value under setting [3] is 89%.

For `CC(=O)[C@H]1CC[C@H]2[C@@H]3CC[C@H]4C[C@](C)(OC(=O)CCN5C(=O)CCC5=O)CC[C@]4(C)[C@H]3CC[C@]12C` [Compound 415], the “Comments: production of GNX (ganaxolone)” value (human liver microsomes) is listed as “In human small amount of GNX produced”. The half-life under setting [1] came to 8.2 min. Under setting [2], the microsomal CLint is 169 µL/min/mg. In addition, the “Human Liver Microsomal Stability no NADPH, % remain 1 h” value under setting [3] was determined as 99%.

For `CC(=O)[C@H]1CC[C@H]2[C@@H]3CC[C@H]4C[C@](C)(OC(=O)C5CC5C(=O)O)CC[C@]4(C)[C@H]3CC[C@]12C` (stereo partly shown) [Compound 408], the “Comments: production of GNX (ganaxolone)” value (human liver microsomes) is “In human no GNX produced”. For the same compound, the half-life under setting [1] was 143 min. Further, the microsomal CLint under setting [2] is 9.72 µL/min/mg. Further, the “Human Liver Microsomal Stability no NADPH, % remain 1 h” value under setting [3] is recorded as 76%.

For the compound `CC(=O)[C@H]1CC[C@H]2[C@@H]3CC[C@H]4C[C@](C)(OC(=O)CN(C)C(=O)CN5CCOCC5)CC[C@]4(C)[C@H]3CC[C@]12C` [Compound 115], the “Comments: production of GNX (ganaxolone)” value (human liver microsomes) is listed as “In human no GNX produced”. Also, under setting [1], the half-life came to 13.8 min. In addition, under setting [2], the microsomal CLint was 100 µL/min/mg. Moreover, the “Human Liver Microsomal Stability no NADPH, % remain 1 h” value under setting [3] is on record as 99%.

For the compound `CC(=O)[C@H]1CC[C@H]2[C@@H]3CC[C@H]4C[C@](C)(OC(=O)CN5CCC[C@H]5C(=O)O)CC[C@]4(C)[C@H]3CC[C@]12C` [Compound 137], under “human liver microsomes”, the “Comments: production of GNX (ganaxolone)” value is given as “In human no GNX produced”. Under setting [1], the half-life amounted to 908 min. For the same compound, the microsomal CLint under setting [2] is 1.52 µL/min/mg. In addition, the “Human Liver Microsomal Stability no NADPH, % remain 1 h” value under setting [3] was found to be 95%.

`CC(=O)[C@H]1CC[C@H]2[C@@H]3CC[C@H]4C[C@](C)(OC(=O)CCCN)CC[C@]4(C)[C@H]3CC[C@]12C` [Compound 417]: under “human liver microsomes”, the “Comments: production of GNX (ganaxolone)” value is given as “In human no GNX produced”. In addition, the half-life under setting [1] came to 494 min. Under setting [2], the microsomal CLint was 2.81 µL/min/mg. For the same compound, the “Human Liver Microsomal Stability no NADPH, % remain 1 h” value under setting [3] was 99%.

Regarding `CC(=O)[C@H]1CC[C@H]2[C@@H]3CC[C@H]4C[C@](C)(OC(=O)C5CC5C(=O)NCCN(C)C)CC[C@]4(C)[C@H]3CC[C@]12C` (stereo partly shown) [Compound 411], under “human liver microsomes”, the “Comments: production of GNX (ganaxolone)” value was “In human small amount of GNX produced”. In addition, the half-life under setting [1] was 444 min. Under setting [2], the microsomal CLint was 3.12 µL/min/mg. Moreover, the “Human Liver Microsomal Stability no NADPH, % remain 1 h” value under setting [3] is recorded as 99%.

On to `CC(=O)[C@H]1CC[C@H]2[C@@H]3CC[C@H]4C[C@](C)(OC(=O)COC(=O)CO)CC[C@]4(C)[C@H]3CC[C@]12C` [Compound 247], for which the half-life under setting [1] worked out at 2.01 min. Further, the microsomal CLint under setting [2] was 689 µL/min/mg. Further, the “Human Liver Microsomal Stability no NADPH, % remain 1 h” value under setting [3] stood at 1.1%.

As to `COC(=O)CNCC(=O)O[C@]1(C)CC[C@@]2(C)[C@@H](CC[C@@H]3[C@@H]2CC[C@]2(C)[C@@H](C(C)=O)CC[C@@H]32)C1` [Compound 110], the “Comments: production of GNX (ganaxolone)” value (human liver microsomes) is “In human GNX not produced”. For the same compound, the half-life under setting [1] came to 4.15 min. Moreover, the microsomal CLint under setting [2] is 344 µL/min/mg. In addition, the “Human Liver Microsomal Stability no NADPH, % remain 1 h” value under setting [3] is 1.5%.

Consider `COCCN(CCOC(C)=O)CC(=O)OC(C)(C)C(=O)OCC(=O)O[C@]1(C)CC[C@@]2(C)[C@@H](CC[C@@H]3[C@@H]2CC[C@]2(C)[C@@H](C(C)=O)CC[C@@H]32)C1` [Compound 236], for which, under “human, microsomes”, the half-life was determined as 3.72 min; the microsomal CLint was determined as 372 µL/min/mg; the “Human Liver Microsomal Stability no NADPH, % remain 1 h” value is reported as less than 1%.

Regarding `CC(=O)[C@H]1CC[C@H]2[C@@H]3CC[C@H]4C[C@](C)(OC(=O)CNC(=O)CNC(=O)[C@@H](N)C(C)C)CC[C@]4(C)[C@H]3CC[C@]12C` [Compound 122], the “Comments: production of GNX (ganaxolone)” value (human liver microsomes) was “In human no GNX produced”. For the same compound, the half-life under setting [1] amounted to 345 min. Further, under setting [2], the microsomal CLint was 4.02 µL/min/mg. Also, the “Human Liver Microsomal Stability no NADPH, % remain 1 h” value under setting [3] is 99%.

As for `CC(=O)[C@H]1CC[C@H]2[C@@H]3CC[C@H]4C[C@](C)(OC(=O)CNC(C)(C)COC(=O)C(C)C)CC[C@]4(C)[C@H]3CC[C@]12C` [Compound 135], for the setting “human, microsomes”, the half-life worked out at 3.6 min; the microsomal CLint amounted to 385 µL/min/mg; the “Human Liver Microsomal Stability no NADPH, % remain 1 h” value was 1.3%.

With `CC(=O)[C@H]1CC[C@H]2[C@@H]3CC[C@H]4C[C@](C)(OC(=O)COC(=O)C(C)(C)OC(=O)CN(CCCO)CCCO)CC[C@]4(C)[C@H]3CC[C@]12C` [Compound 231], the half-life under setting [1] was 5.3 min. The microsomal CLint under setting [2] is 261 µL/min/mg. Under setting [3], the “Human Liver Microsomal Stability no NADPH, % remain 1 h” value is reported as 98%.

With `CC(=O)[C@H]1CC[C@H]2[C@@H]3CC[C@H]4C[C@](C)(CC(=O)COC(=O)NCCN(C)C)CC[C@]4(C)[C@H]3CC[C@]12C` [Compound 217], the half-life under setting [1] was determined as 316 min. Also, the microsomal CLint under setting [2] was 4.39 µL/min/mg. Also, the “Human Liver Microsomal Stability no NADPH, % remain 1 h” value under setting [3] is recorded as 99.7%.

Consider `CC(=O)[C@H]1CC[C@H]2[C@@H]3CC[C@H]4C[C@](C)(OC(=O)CN[C@@H](C)C(=O)O)CC[C@]4(C)[C@H]3CC[C@]12C` [Compound 131], for which the “Comments: production of GNX (ganaxolone)” value (human liver microsomes) is reported as “In human no GNX produced”. In addition, under setting [1], the half-life amounted to 207 min. In addition, the microsomal CLint under setting [2] was 6.7 µL/min/mg. The “Human Liver Microsomal Stability no NADPH, % remain 1 h” value under setting [3] is recorded as 82%.

For the compound `CC(=O)[C@H]1CC[C@H]2[C@@H]3CC[C@H]4C[C@](C)(OC(=O)COC(=O)OC5CNC5)CC[C@]4(C)[C@H]3CC[C@]12C` [Compound 222], under “human liver microsomes”, the “Comments: production of GNX (ganaxolone)” value is reported as “In human no GNX produced”. Under setting [1], the half-life came out at 63.7 min. Also, the microsomal CLint under setting [2] was 21.8 µL/min/mg. The “Human Liver Microsomal Stability no NADPH, % remain 1 h” value under setting [3] came to 61%.

As to `CC(=O)[C@H]1CC[C@H]2[C@@H]3CC[C@H]4C[C@](C)(OC(=O)CN(CCO)CCO)CC[C@]4(C)[C@H]3CC[C@]12C` [Compound 142], under “human, microsomes”, the half-life is 32.3 min; the microsomal CLint stood at 42.9 µL/min/mg; the “Human Liver Microsomal Stability no NADPH, % remain 1 h” value was found to be 99%.

Turning to `CC(=O)[C@H]1CC[C@H]2[C@@H]3CC[C@H]4C[C@](C)(OC(=O)CCC(=O)NCCN(C)C)CC[C@]4(C)[C@H]3CC[C@]12C` [Compound 410], the “Comments: production of GNX (ganaxolone)” value (human liver microsomes) was “In human no GNX produced”. In addition, the half-life under setting [1] was found to be 439 min. Also, the microsomal CLint under setting [2] was 3.16 µL/min/mg. Further, under setting [3], the “Human Liver Microsomal Stability no NADPH, % remain 1 h” value amounted to 99%.

For `CC(=O)[C@H]1CC[C@H]2[C@@H]3CC[C@H]4C[C@](C)(OC(=O)COC(=O)CN(C)C)CC[C@]4(C)[C@H]3CC[C@]12C` [Compound 202], the half-life under setting [1] is 2.62 min. Besides, the microsomal CLint under setting [2] is 529 µL/min/mg. Further, the “Human Liver Microsomal Stability no NADPH, % remain 1 h” value under setting [3] was found to be 1.85%.

`CC(=O)COCN(CCO)CC(=O)OC(C)(C)C(=O)OCC(=O)O[C@]1(C)CC[C@@]2(C)[C@@H](CC[C@@H]3[C@@H]2CC[C@]2(C)[C@@H](C(C)=O)CC[C@@H]32)C1` [Compound 230]: the half-life under setting [1] stood at 2.94 min. Further, the microsomal CLint under setting [2] is 471 µL/min/mg. Further, the “Human Liver Microsomal Stability no NADPH, % remain 1 h” value under setting [3] is 1%.
